Assay results reported in ChEMBL document CHEMBL5385959, “Trifluoroacetic acid-mediated synthesis of xanthene constructs and their extensive anti-tuberculosis evaluation” (RSC Med Chem, 2024).
Values after ≈ are worked out from the molar mass of the structure shown.

Experiments:
Format in all cases: functional
Pseudomonas aeruginosa = assay: Antibacterial activity against Pseudomonas aeruginosa assessed as reduction in bacterial growth incubated for 24 hrs by broth dilution method
[1] = test system: Mycobacterium tuberculosis; assay: Antibacterial activity against Mycobacterium tuberculosis H37Ra assessed as reduction in bacterial growth incubated for 14 days by CLSI protocol based method; conditions: 336 h, time 14 day
Bacillus subtilis = assay: Antibacterial activity against Bacillus subtilis assessed as reduction in bacterial growth incubated for 24 hrs by broth dilution method
Escherichia coli = assay: Antibacterial activity against Escherichia coli assessed as reduction in bacterial growth incubated for 24 hrs by broth dilution method
[2] = test system: Mycobacterium tuberculosis; assay: Antibacterial activity against Mycobacterium tuberculosis H37Rv assessed as reduction in bacterial growth incubated for 14 days by CLSI protocol based method; conditions: 336 h, time 14 day
[3] = test system: Mycobacterium tuberculosis; assay: Antibacterial activity against Mycobacterium tuberculosis H37Rv assessed as reduction in bacterial growth by broth microdilution method

SMILES	MIC (Pseudomonas aeruginosa) [µg/mL]	MIC [1] [µg/mL]	MIC (Bacillus subtilis) [µg/mL]	MIC (Escherichia coli) [µg/mL]	MIC [2] [µg/mL]	MIC [3] [µg/mL]
CC1(C)CC(=O)C2=C(C1)OC1=C(C(=O)CC(C)(C)C1)C2c1ccc(C#N)cc1	> 128	64 (≈ 170 µM)	> 128	> 128	64 (≈ 170 µM)	
O=C1CCCC2=C1C(c1cccc(Br)c1)C1=C(CCCC1=O)O2	> 128	64 (≈ 171 µM)	> 128	> 128	64 (≈ 171 µM)	
O=C1CCCC2=C1C(c1cc(O)ccc1O)C1=C(CCCC1=O)O2	> 128	64 (≈ 196 µM)	> 128	> 128	64 (≈ 196 µM)	
COc1ccccc1C1C2=C(CCCC2=O)OC2=C1C(=O)CCC2	> 128	64 (≈ 197 µM)	> 128	> 128	64 (≈ 197 µM)	
CC1(C)CC(=O)C2=C(C1)OC1=C(C(=O)CC(C)(C)C1)C2c1cccc(Br)c1	> 128	64 (≈ 149 µM)	> 128	> 128	64 (≈ 149 µM)	
CC1(C)CC(=O)C2=C(C1)OC(N)=C(C#N)C2c1ccc(O)cc1 (stereo unspecified)					> 64	
N#CC1=C(N)Oc2c(c(=O)oc3ccccc23)C1c1ccc(O)cc1 (stereo unspecified)					> 64	
COc1ccc(C2C3=C(CCCC3=O)OC3=C2C(=O)CCC3)cc1O	> 128	64 (≈ 188 µM)	> 128	> 128	64 (≈ 188 µM)	
O=C1CCCC2=C1C(c1ccc(Br)cc1)C1=C(CCCC1=O)O2	> 128	64 (≈ 171 µM)	> 128	> 128	64 (≈ 171 µM)	
COc1cccc(C2C3=C(CC(C)(C)CC3=O)OC3=C2C(=O)CC(C)(C)C3)c1	> 128	64 (≈ 168 µM)	> 128	> 128	64 (≈ 168 µM)	
C[C@H]1COc2c(N3CCN(C)CC3)c(F)cc3c(=O)c(C(=O)O)cn1c23 [LEVOFLOXACIN ANHYDROUS]		0.039 (≈ 0.108 µM)			2.5 (≈ 6.92 µM)	
CO[C@H]1/C=C/O[C@@]2(C)Oc3c(C)c(O)c4c(O)c(c(/C=N/N5CCN(C)CC5)c(O)c4c3C2=O)NC(=O)/C(C)=C\C=C\[C@H](C)[C@H](O)[C@@H](C)[C@@H](O)[C@@H](C)[C@H](OC(C)=O)[C@@H]1C [RIFAMPIN]						8 (≈ 9.72 µM)
COc1ccc(C2C3=C(CCCC3=O)OC3=C2C(=O)CCC3)cc1	> 128	16 (≈ 49.3 µM)	> 128	> 128	16 (≈ 49.3 µM)	
N#CC1=C(N)OC2=C(C(=O)CCC2)C1c1ccccc1 (stereo unspecified)					> 64	
CC1(C)CC(=O)C2=C(C1)OC1=C(C(=O)CC(C)(C)C1)C2c1cccc([N+](=O)[O-])c1	> 128	64 (≈ 162 µM)	> 128	> 128	64 (≈ 162 µM)	
COc1ccc(OC)c(C2C3=C(CCCC3=O)OC3=C2C(=O)CCC3)c1	> 128	64 (≈ 181 µM)	> 128	> 128	64 (≈ 181 µM)	
O=C1CCCC2=C1C(c1cccc([N+](=O)[O-])c1)C1=C(CCCC1=O)O2	> 128	64 (≈ 189 µM)	> 128	> 128	64 (≈ 189 µM)	
